Source: ChEMBL document CHEMBL1201862, “PubChem BioAssay data set” (2004)
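Assay format: 96-well plates, 48-hour exposure. GI50 is the concentration that inhibits growth by half.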 Activity calls are given as the source filed them. No stated cut-off is given here; in the data, active = GI50 up to about 1.1 µM and inactive = higher.

Assays:
Assay in all cases: NCI anticancer screen, dose series, 48 h
SK-MEL-5 = test system: SK-MEL-5
SNB-19 = test system: SNB-19
HCT-15 = test system: HCT-15
OVCAR-4 = test system: OVCAR-4
SF-539 = test system: SF-539
HCC 2998 = test system: HCC 2998
MOLT-4 = test system: MOLT-4
TK-10 = test system: TK-10
786-0 = test system: 786-0
NCI-H460 = test system: NCI-H460
SK-OV-3 = test system: SK-OV-3
MDA-MB-231 = test system: MDA-MB-231
HOP-62 = test system: HOP-62
SW-620 = test system: SW-620
HCT-116 = test system: HCT-116
A549 = test system: A549
SF-295 = test system: SF-295
UO-31 = test system: UO-31
CCRF-CEM = test system: CCRF-CEM
NCI-H23 = test system: NCI-H23
SNB-75 = test system: SNB-75
OVCAR-8 = test system: OVCAR-8
MCF7 = test system: MCF7
NCI-H226 = test system: NCI-H226
DU-145 = test system: DU-145
KM12 = test system: KM12
EKVX = test system: EKVX
OVCAR-5 = test system: OVCAR-5
K562 = test system: K562
COLO 205 = test system: COLO 205
SK-MEL-28 = test system: SK-MEL-28
T47D = test system: T47D
HL-60 = test system: HL-60
HOP-92 = test system: HOP-92
RXF 393 = test system: RXF 393
RPMI-8226 = test system: RPMI-8226
SN12C = test system: SN12C
UACC-257 = test system: UACC-257
IGROV-1 = test system: IGROV-1
M14 = test system: M14
ACHN = test system: ACHN
SR = test system: SR
SF-268 = test system: SF-268
A498 = test system: A498
HT-29 = test system: HT-29
UACC-62 = test system: UACC-62
MDA-MB-435 = test system: MDA-MB-435
Hs-578T = test system: Hs-578T
U-251 = test system: U-251
Malme-3M = test system: Malme-3M
NCI/ADR-RES = test system: NCI/ADR-RES
MDA-N = test system: MDA-N
PC-3 = test system: PC-3
CAKI-1 = test system: CAKI-1
SK-MEL-2 = test system: SK-MEL-2
OVCAR-3 = test system: OVCAR-3
LOX IMVI = test system: LOX IMVI
NCI-H522 = test system: NCI-H522

Measured: GI50

N/N=C(\N)Nc1cccc2ccccc12
inactive: SK-MEL-5 > 100 µM | SNB-19 > 100 µM | OVCAR-4 > 100 µM | SF-539 > 100 µM | HCC 2998 > 100 µM | MOLT-4 > 100 µM | TK-10 > 100 µM | 786-0 > 100 µM | NCI-H460 > 100 µM | SK-OV-3 > 100 µM | MDA-MB-231 > 100 µM | HOP-62 > 100 µM | SW-620 > 100 µM | HCT-116 > 100 µM | A549 > 100 µM | SF-295 > 100 µM | UO-31 > 100 µM | CCRF-CEM > 100 µM | NCI-H23 > 100 µM | SNB-75 > 100 µM | OVCAR-8 > 100 µM | MCF7 > 100 µM | NCI-H226 > 100 µM | DU-145 > 100 µM | KM12 > 100 µM | EKVX > 100 µM | OVCAR-5 > 100 µM | K562 > 100 µM | COLO 205 > 100 µM | SK-MEL-28 > 100 µM | T47D > 100 µM | HL-60 > 100 µM | HOP-92 27.9 µM | RXF 393 > 100 µM | RPMI-8226 > 100 µM | SN12C > 100 µM | UACC-257 > 100 µM | IGROV-1 > 100 µM | M14 > 100 µM | ACHN > 100 µM | SR > 100 µM | SF-268 > 100 µM | A498 33.3 µM | HT-29 > 100 µM | UACC-62 > 100 µM | MDA-MB-435 > 100 µM | Hs-578T > 100 µM | U-251 > 100 µM | Malme-3M > 100 µM | NCI/ADR-RES > 100 µM
> 100 µM: HCT-15

CC(C)=CC(=O)O[C@H]1C(=O)O[C@@H]2C[C@H]3[C@H](C)C(=O)C(O[C@@H]4O[C@H](CO)[C@@H](O)[C@H](O)[C@H]4O)=C[C@]3(C)[C@H]3[C@@H](O)[C@H](O)[C@]4(C(=O)O)OC[C@]32[C@@H]14 [BRUCEOSIDE D]
inactive: TK-10 71.9 µM | 786-0 96.6 µM | SW-620 79.4 µM | NCI-H23 56.1 µM | SNB-75 86.1 µM | MDA-N 66.2 µM | OVCAR-5 84.5 µM | PC-3 71 µM | COLO 205 65.8 µM | T47D 51.9 µM | UACC-257 98.9 µM | IGROV-1 54 µM | A498 79.1 µM | UACC-62 97.5 µM | MDA-MB-435 66.5 µM | CAKI-1 90.8 µM

CC1=CC(=O)CC(C)(C)C1/C=C/C(C)=C/C=C/C(C)=C/C=C/C=C(C)/C=C/C=C(C)/C=C/C1C(C)=CC(=O)CC1(C)C (stereo not drawn)
inactive: SK-MEL-5 45.8 µM | OVCAR-4 41.1 µM | SF-539 45.5 µM | HCC 2998 53.1 µM | MOLT-4 50.1 µM | TK-10 77.1 µM | 786-0 34.4 µM | NCI-H460 86.1 µM | SK-OV-3 > 100 µM | MDA-MB-231 > 100 µM | HOP-62 42 µM | SW-620 23.2 µM | HCT-116 20.2 µM | SF-295 92 µM | UO-31 67.5 µM | CCRF-CEM 21.6 µM | NCI-H23 36.3 µM | OVCAR-8 20.1 µM | MCF7 29.2 µM | NCI-H226 > 100 µM | DU-145 > 100 µM | KM12 37.2 µM | EKVX 92.9 µM | MDA-N 35.1 µM | OVCAR-5 78.5 µM | PC-3 41.1 µM | K562 37.2 µM | SK-MEL-28 > 100 µM | T47D > 100 µM | HL-60 38.5 µM | HOP-92 23.3 µM | RXF 393 > 100 µM | RPMI-8226 25.2 µM | SK-MEL-2 > 100 µM | UACC-257 61.2 µM | IGROV-1 31.3 µM | M14 40.4 µM | OVCAR-3 30.5 µM | ACHN 30 µM | SR 66.1 µM | LOX IMVI 29.3 µM | SF-268 44.4 µM | A498 > 100 µM | HT-29 35.7 µM | NCI-H522 20.8 µM | MDA-MB-435 23.4 µM | Hs-578T 30.8 µM | U-251 38.7 µM | NCI/ADR-RES 72.6 µM | CAKI-1 58.7 µM
27 µM: HCT-15
